Measured values as given in ChEMBL document CHEMBL3745645, “Synthesis, in vitro antitumor activity, dihydrofolate reductase inhibition, DNA intercalation and structure-activity relationship studies of 1,3,5-triazine analogues” (Bioorg Med Chem Lett, 2016).
Active and inactive are the calls of the source. The rule behind the calls is not given here.

Columns and labels:
[1] = Cytotoxicity against human HL-60(TB) cells at 10 uM after 48 hrs by SRB assay; assay type: functional; settings: HL-60, 48 h, read-out: GI
[2] = system: HOP-92; assay: Cytotoxicity against human HOP92 cells at 10 uM after 48 hrs by SRB assay; assay type: functional
[3] = system: NCI/ADR-RES; assay: Cytotoxicity against human NCI-ADR-RES cells at 10 uM after 48 hrs by SRB assay; assay type: functional
[4] = system: SNB-75; assay: Cytotoxicity against human SNB75 cells at 10 uM after 48 hrs by SRB assay; assay type: functional
[5] = system: HOP-62; assay: Cytotoxicity against human HOP62 cells at 10 uM after 48 hrs by SRB assay; assay type: functional
[6] = system: CAKI-1; assay: Cytotoxicity against human Caki1 cells at 10 uM after 48 hrs by SRB assay; assay type: functional
[7] = system: SF-268; assay: Cytotoxicity against human SF268 cells at 10 uM after 48 hrs by SRB assay; assay type: functional
[8] = system: MOLT-4; assay: Cytotoxicity against human MOLT4 cells at 10 uM after 48 hrs by SRB assay; assay type: functional
[9] = system: LOX IMVI; assay: Cytotoxicity against human LOXIMVI cells at 10 uM after 48 hrs by SRB assay; assay type: functional
[10] = system: HCT-116; assay: Cytotoxicity against human HCT116 cells at 10 uM after 48 hrs by SRB assay; assay type: functional
[11] = system: OVCAR-8; assay: Cytotoxicity against human OVCAR8 cells at 10 uM after 48 hrs by SRB assay; assay type: functional
[12] = system: DU-145; assay: Cytotoxicity against human DU145 cells at 10 uM after 48 hrs by SRB assay; assay type: functional
[13] = system: COLO 205; assay: Cytotoxicity against human COLO205 cells at 10 uM after 48 hrs by SRB assay; assay type: functional
[14] = system: IGROV-1; assay: Cytotoxicity against human IGROV1 cells at 10 uM after 48 hrs by SRB assay; assay type: functional
[15] = system: UO-31; assay: Cytotoxicity against human UO31 cells at 10 uM after 48 hrs by SRB assay; assay type: functional
[16] = system: SK-OV-3; assay: Cytotoxicity against human SKOV3 cells at 10 uM after 48 hrs by SRB assay; assay type: functional
[17] = system: SW-620; assay: Cytotoxicity against human SW620 cells at 10 uM after 48 hrs by SRB assay; assay type: functional
[18] = system: Hs-578T; assay: Cytotoxicity against human Hs 578T cells at 10 uM after 48 hrs by SRB assay; assay type: functional
[19] = system: Calf thymus DNA; assay: Binding affinity to calf thymus DNA at 25 uM by UV-vis spectrometric analysis; assay type: nucleic-acid assay; settings: Bos taurus

Cc1nc2cc(Nc3nc(Nc4ccc(F)cc4)nc(-c4cccs4)n3)ccc2n1Cc1ccccc1
inhibition of growth at 10 µM [1]: 71.9%

Cc1nc2cc(Nc3nc(Nc4ccc(F)cc4)nc(N4CCCC4)n3)ccc2n1Cc1ccccc1
growth inhibition (GI) [2]: Active | growth inhibition (GI) [3]: Active | growth inhibition (GI) [4]: Active | growth inhibition (GI) [5]: Active | growth inhibition (GI) [6]: Active | growth inhibition (GI) [7]: Active | growth inhibition (GI) [8]: Active | growth inhibition (GI) [9]: Active | growth inhibition (GI) [10]: Active | growth inhibition (GI) [11]: Active | growth inhibition (GI) [12]: Active | growth inhibition (GI) [13]: Active | growth inhibition (GI) [14]: Active | growth inhibition (GI) [15]: Active | growth inhibition (GI) [16]: Active | growth inhibition (GI) [17]: Active

COc1ccc(-c2nc(Nc3ccc(F)cc3)nc(Nc3ccc4c(c3)nc(C)n4Cc3ccccc3)n2)cc1
growth inhibition (GI) [8]: Active

Cc1nc2cc(Nc3nc(Nc4ccc(F)cc4)nc(N4CCN(C)CC4)n3)ccc2n1Cc1ccccc1
growth inhibition (GI) [4]: Active | growth inhibition (GI) [9]: Active | growth inhibition (GI) [10]: Active | growth inhibition (GI) [18]: Active | growth inhibition (GI) [13]: Active | growth inhibition (GI) [15]: Active

Cc1nc2ccc(Nc3nc(NCCN4CCOCC4)nc(Nc4ccc(F)cc4)n3)cc2n1Cc1ccccc1
Activity [19]: Active
